Data on 15 compounds can be found in patent US20070270362A1, “Methods and compositions for prevention or treatment of inflammatory-related diseases and disorders” (The University of Washington, priority 2006, published 2007).

One assay concerns BAEC or HUVEC monolayer. The assay can be described thus: Lymphocyte adhesion to endothelial cells treated with retracting or apoptosis-inducing agents. To be noted: for lymphocyte adhesion to EC treated with the agent: BAEC or HUVEC. Format: cell-based. As for the experimental part:
Cells. Jurkat cells and Ramos B cells were obtained from the American Type Culture Collection (ATCC) and were cultured in RPMI (Mediatech, Herndon Va.) supplemented with glutaMAX-1 (Invitrogen, Carlsbad Calif.), 1 mM sodium pyruvate (BioWhittaker, Walkersville Md.), nonessential amino acids (NEAA) (BioWhittaker) and 10% fetal bovine serum (FBS) (Hyclone, Logan Utah). Peripheral blood was obtained from healthy donors with informed consent according to protocols approved by the Human Subjects Review Committee of the University of Washington. PBMC were isolated by Ficoll-Hypaque (Pharmacia, Piscataway, N.J.) gradient centrifugation and washed with PBS. […] HUVEC were cultured on surfaces coated with 2% gelatin (Sigma). BAEC were a gift of Helene Sage (Hope Heart Institute, Seattle Wash.) and were grown in DMEM (Mediatech) supplemented with glutaMAX-1, sodium pyruvate and 8% FBS. […] Adhesion assays. Lymphocytes were labeled with 2.5 mM calcein-AM (Molecular Probes, Eugene, Oreg.) at room temperature for 20-40 min, washed, and resuspended in HBSS with calcium and magnesium (Mediatech) supplemented with 0.1% BSAnd 4 mM HEPES. Lymphocytes were incubated with inhibitors or function-blocking antibodies at 37° C. for 15-30 min and tested for LIA or phorbol ester-stimulated adhesion to EC or to EC matrix for 15-30 min at 37° C. Adhesion was measured by a Cytofluor Series 4000 fluorescence plate reader (PerSeptive Biosystems, Framingham, Mass.). Plates were scanned before and after washing for total and adherent cells, respectively. Statistical significance was deteremined by Student's t-Test. In some cases, EC were labeled with Cell Tracker Orange (Molecular Probes) per manufacturers instructions prior to adhesion. Cells were fixed after adhesion assays and adherent cells were directly visualized by fluorescent microscopy.

For assay [1], the system named is Jurkat cells or PBMC adhering to cytochalasin D-retracted BAEC or BAEC-derived matrix. The assay can be described thus: Ligand-induced adhesion (LIA) of unstimulated lymphocytes to retracted EC or EC matrix. Format: cell-based, human. As to conditions: for ligand-induced cell adhesion: same dose (1 μM) treatment of Jurkat cells; for adhesion to retracted BAEC or EC matrix (LIA): Jurkat or PBMC treated with 20 μM inhibitor for 30 min, adhesion 30 min. As for the experimental part:
Cells. Jurkat cells and Ramos B cells were obtained from the American Type Culture Collection (ATCC) and were cultured in RPMI (Mediatech, Herndon Va.) supplemented with glutaMAX-1 (Invitrogen, Carlsbad Calif.), 1 mM sodium pyruvate (BioWhittaker, Walkersville Md.), nonessential amino acids (NEAA) (BioWhittaker) and 10% fetal bovine serum (FBS) (Hyclone, Logan Utah). Peripheral blood was obtained from healthy donors with informed consent according to protocols approved by the Human Subjects Review Committee of the University of Washington. PBMC were isolated by Ficoll-Hypaque (Pharmacia, Piscataway, N.J.) gradient centrifugation and washed with PBS. HUVEC were isolated and cultured as previously described (Schwartz et al., J Immunol 162: 4842-8, 1999) and were grown in RPMI 1640 with supplemented with 2 mM glutamine, sodium pyruvate, NEAA, 10 mM HEPES, 100 U/ml penicillin, 100 U/ml streptomycin, 250 ng/ml fungizone (BioWhittaker), […] heparin (Sigma, St. Louis, Mo.), bovine hypothalamic extract (gift of E. Raines, University of Washington, Seattle, Wash.), and 10% bovine calf serum supplemented with iron (HyClone). HUVEC were cultured on surfaces coated with 2% gelatin (Sigma). BAEC were a gift of Helene Sage (Hope Heart Institute, Seattle Wash.) and were grown in DMEM (Mediatech) supplemented with glutaMAX-1, sodium pyruvate and 8% FBS. EC matrix was prepared by lysis of a confluent layer of EC with 20 mM NH4OH at 37° C. for 5 min (Kato and Gospodarowicz, J Cell Biol 100: 486-95, 1985) and blocked briefly with growth medium. Adhesion assays. Lymphocytes were labeled with 2.5 mM calcein-AM (Molecular Probes, Eugene, Oreg.) at room temperature for 20-40 min, washed, and resuspended in HBSS with calcium and magnesium (Mediatech) supplemented with 0.1% BSAnd 4 mM HEPES. Lymphocytes were incubated with inhibitors or function-blocking antibodies at 37° C. for 15-30 min and tested for LIA or phorbol ester-stimulated adhesion to EC or to EC matrix for 15-30 min at 37° C. Adhesion was measured by a Cytofluor Series 4000 fluorescence plate reader (PerSeptive Biosystems, Framingham, Mass.). Plates were scanned before and after washing for total and adherent cells, respectively. Statistical significance was deteremined by Student's t-Test. In some cases, EC were labeled with Cell Tracker Orange (Molecular Probes) per manufacturers instructions prior to adhesion. Cells were fixed after adhesion assays and adherent cells were directly visualized by fluorescent microscopy. Underlying fibronectin fibrils were visualized with polyclonal anti-bovine fibronectin antibody (Accurate), followed by Alexa-568 conjugated secondary antibody (Molecular Probes).

Another assay has as its system Jurkat cells. To be noted: 1 μM treatment of Jurkat cells; previously reported; cited from earlier work.
The subject of assay [2] is PBMC migrating through confluent HUVEC monolayer. Put plainly: Transendothelial migration assay. Format: cell-based, human. As for the experimental part: Flow cytometry. Integrin subunit expression levels were analyzed by a FACScan (Becton Dickinson) instrument. Analyzed cells were incubated in integrin antibodies for 30 min, followed by incubation with fluorescein-labeled secondary antibodies for 30 mins. Migration Assays. Calcein-labeled PBMC were treated with purvanalol for 15 min, then added to a confluent monolayer of HUVEC grown on collagen-coated transwell (3 micron pore size, Costar-Corning). PBMC were allowed to migrate for 4 hours at 37° C. Number of migrated cells in bottom chamber was counted. […] In addition, in some experiments, equal numbers of PBMC were allowed to adhere to HUVEC, then treated with purvanaol, to verify that differences in migration were not simply due to differences in initial adhesion. All assays were performed in triplicate. Integrity of the endothelial monolayer was verified by measurements of transendothelial resistance before and after migration assay.

Assay [3] deals with retinoblastoma protein (Rb), Cdk2 specific site (T821) and Cdk4 specific site (249/252). Put plainly: Western blot of Rb phosphorylation with phospho-specific antibodies. Format: cell-based. As to conditions: Jurkat cells, 20 μM, 30 min.
Description: Western Blot Analysis. Equal numbers of Jurkat cells (1×10^6) were lysed in buffer containing 50 mM Hepes, pH 7.5, 10 mM NaCl, 5 mM MgCl2, 1 mM EGTA, 1 μg/ml leupeptin, 1 μg/ml aprotinin, 1% triton, and 10% glycerol and Complete Mini Protease Inhibitor Cocktail (Roche). Equal amounts of protein were separated by SDS-PAGE, transferred to Immobilon and blocked for 1 hour. Blots were incubated with primary antibody for 1 hour, followed by peroxidase-conjugated secondary antibody for 1 hour and then developed with Enhanced Chemiluminescence (ECL, Amersham). […] Anti-Cdk2 and anti-Cdk4 antibodies were obtained from eBioscience.

Entries after “also recorded” stand apart in the source; their conditions may differ.

As for `COC(=O)Nc1nc2cc(C(=O)c3cccs3)ccc2[nH]1` [nocadozole], in the assay with BAEC or HUVEC monolayer, the endothelial cell retraction result is “failed to induce retraction” and the “lymphocyte adhesion to EC treated with the agent” value (“lymphocyte adhesion to EC treated” for short) is on record as “failed to produce comparable lymphocyte adhesion”.
The corresponding values for `CC(=O)O[C@H]1C(=O)[C@@]2(C)[C@H]([C@H](OC(=O)c3ccccc3)[C@]3(O)C[C@H](OC(=O)[C@H](O)[C@@H](NC(=O)c4ccccc4)c4ccccc4)C(C)=C1C3(C)C)[C@]1(OC(C)=O)CO[C@@H]1C[C@@H]2O` [paclitaxel] are “failed to induce retraction” and “failed to produce comparable lymphocyte adhesion”.
For Thrombin, the endothelial cell retraction result in the assay on BAEC or HUVEC monolayer is reported as “caused endothelial cell retraction”. The “increase of Jurkat cell adhesion to treated BAEC” value in the assay on BAEC or HUVEC monolayer (Jurkat cells, BAEC) is given as 4-5 fold.
Regarding latrunculin, the endothelial cell retraction result in the assay with BAEC or HUVEC monolayer is recorded as “caused endothelial cell retraction”.
As for `C=C1[C@@H](C)[C@H]2[C@H](Cc3ccccc3)NC(=O)[C@]23[C@H](OC(C)=O)/C=C/[C@@](C)(O)C(=O)[C@@H](C)C/C=C/[C@H]3[C@@H]1O` [cytochalasin D], the figures for the ligand-induced cell adhesion entry in assay [1] and in assay [1] (listed as cytochalasin) were “Not affected by cytochalasin D” and “no affect”, respectively. Besides, the endothelial cell retraction result in the assay with BAEC or HUVEC monolayer is “caused endothelial cell retraction”. In the assay on BAEC or HUVEC monolayer (PBMC), the “PBMC adhesion to treated EC versus untreated EC” value was 5-6 fold. For the same compound, the “phorbol ester-stimulated cell adhesion” value in the assay on Jurkat cells is on record as “Inhibited by cytochalasin D”.
Regarding `CN[C@@H]1C[C@H]2O[C@@](C)([C@@H]1OC)n1c3ccccc3c3c4c(c5c6ccccc6n2c5c31)C(=O)NC4` [staurosporine], the endothelial cell retraction result with BAEC or HUVEC monolayer is “caused endothelial cell retraction”.
On to `COc1cccc(-c2cc(=O)c3ccccc3o2)c1N` [PD98059], for which the “inhibition of LIA by inhibitors of other pathways” value (“inhibition of LIA” below) in assay [1] is recorded as “did not inhibit LIA”.
Regarding `C[C@@H](N)[C@H]1CC[C@H](C(=O)Nc2ccncc2)CC1` [Y-7632], in assay [1], the “inhibition of LIA” value is listed as “did not inhibit LIA”.
As for `CC(C)[C@H](CO)Nc1nc(Nc2cccc(Cl)c2)c2ncn(C(C)C)c2n1` [purvalanol A], the “adhesion to retracted BAEC or EC matrix (LIA)” value (“adhesion … (LIA)” for short) in assay [1] is given as “block ligand-induced adhesion; also recorded: significantly reduced”. Also, the “initial adhesion of PBMC to confluent endothelial cells” value in assay [2] is reported as “did not affect initial adhesion”. Further, the “PBMC migration through confluent endothelial monolayer” value in assay [2] (HUVEC on transwell) is on record as “inhibited”. Further, in assay [3], the “phosphorylation of Rb at Cdk2 site (T821) and Cdk4 site (249/252)” value is recorded as “block Rb phosphorylation”.
Take `CC[C@H](CO)Nc1nc(NCc2ccccc2)c2ncn(C(C)C)c2n1` [roscovitine]: in assay [1], the “adhesion … (LIA)” value is “block ligand-induced adhesion; also recorded: significantly reduced”.
Regarding `O=c1c(-c2ccc(O)cc2)coc2cc(O)cc(O)c12` [genistein], the “inhibition of LIA” value in assay [1] is “did not inhibit LIA”.
On to `O=C(O)CN(CCN(CC(=O)O)CC(=O)O)CC(=O)O` [EDTA], for which, in the assay on BAEC or HUVEC monolayer, the endothelial cell retraction entry is given as “caused endothelial cell retraction”.
Turning to `CC[C@]1(O)C[C@@H]2CN(CCc3c([nH]c4ccccc34)[C@@](C(=O)OC)(c3cc4c(cc3OC)N(C)[C@H]3[C@@](O)(C(=O)OC)[C@H](OC(C)=O)[C@]5(CC)C=CCN6CC[C@]43[C@@H]65)C2)C1` [vinblastine], in the assay on BAEC or HUVEC monolayer, the endothelial cell retraction entry is given as “failed to induce retraction” and the “lymphocyte adhesion to EC treated” value is “failed to produce comparable lymphocyte adhesion”.
For the compound `COc1cc2c(c(OC)c1OC)-c1ccc(OC)c(=O)cc1[C@@H](NC(C)=O)CC2` [colchicine], in the assay on BAEC or HUVEC monolayer, the endothelial cell retraction entry is “failed to induce retraction” and the “lymphocyte adhesion to EC treated” value is “failed to produce comparable lymphocyte adhesion”.
On to `CC(C)[C@H](CO)Nc1nc(Nc2cc(N)cc(Cl)c2)c2ncn(C(C)C)c2n1` [aminopurvalanol A], for which the “adhesion … (LIA)” value in assay [1] is listed as “block ligand-induced adhesion; also recorded: significantly reduced”.
